The text below walks through data of patent publication US20150344502A1, “CEPHEM COMPOUND” (SHIONOGI & CO., LTD., priority 2012, published 2015).

Structures are written as SMILES. ≈ marks a conversion by molar mass, not a printed value.

Common to all, as to assay type: cell-based
One assay concerns E. Coli ATCC BAA-200. The assay is described as follows: MIC, broth microdilution (CLSI), E. Coli ATCC BAA-200. As to conditions: Escherichia coli, ATCCBAA200; E. Coli ATCC BAA-200, SHV-4, ESBL producing strain; 5×10^5 cfu/mL; cation-adjusted Iso-Sensitest broth containing human Apo-transferrin; read-out: Minimum Inhibitory Concentration (MIC). How it is done:
(§1) Compound (I) of the present invention was evaluated for in vitro antimicrobial activity thereof.
(§2) Measurement of Minimum Inhibitory Concentration (MIC: μg/mL) was conducted according to CLSI (Clinical and Laboratory Standards Institute) method, and the amount of bacteria for inoculation was 5×10^5 cfu/mL, and cation-adjusted Iso-Sensitest broth containing human Apo-transferrin was used as a test medium, and the experiment was conducted using broth microdilution method.
For orientation: Broth dilution looks for growth in wells or tubes with falling amounts of substance.

Another assay relates to P. aeruginosa 378057. The assay is described as follows: MIC, broth microdilution (CLSI), P. aeruginosa 378057. The conditions noted are these: Pseudomonas aeruginosa, 5×10^5 cfu/mL, cation-adjusted Iso-Sensitest broth containing human Apo-transferrin, read-out: Minimum Inhibitory Concentration (MIC). How it is done: as §1, §2
Another assay concerns A. baumannii 1484820. The assay is described as follows: MIC, broth microdilution (CLSI), A. baumannii 1484820. As to conditions: Acinetobacter baumannii, 5×10^5 cfu/mL, cation-adjusted Iso-Sensitest broth containing human Apo-transferrin, read-out: Minimum Inhibitory Concentration (MIC). How it is done: as §1, §2
The subject of the next assay is E. Coli ATCC BAA-196. The assay is described as follows: MIC, broth microdilution (CLSI), E. Coli ATCC BAA-196. The conditions noted are these: Escherichia coli, ATCCBAA196; E. Coli ATCC BAA-196, TEM-10, ESBL producing strain; 5×10^5 cfu/mL; cation-adjusted Iso-Sensitest broth containing human Apo-transferrin; read-out: Minimum Inhibitory Concentration (MIC). Here is the method:
as §1, §2

Another assay concerns E. cloacae 1481026. The assay is described as follows: MIC, broth microdilution (CLSI), E. cloacae 1481026. The conditions noted are these: Enterobacter cloacae, 5×10^5 cfu/mL, cation-adjusted Iso-Sensitest broth containing human Apo-transferrin, read-out: Minimum Inhibitory Concentration (MIC). Here is the method:
as §1, §2

With `CC(C)(O/N=C(\C(=O)N[C@@H]1C(=O)N2C(C(=O)O)=C(C[N+]3(CCN4C(=O)c5c(Cl)cc(O)c(O)c5C4=O)CCCC3)CS[C@H]12)c1csc(N)n1)C(=O)[O-]` [Compound I-3], the MIC in the assay on E. Coli ATCC BAA-200 is 0.125 µg/mL (≈ 0.161 µM); in the assay with P. aeruginosa 378057 it was 0.063 µg/mL (≈ 0.081 µM); in the assay with A. baumannii 1484820, 0.25 µg/mL (≈ 0.321 µM); in the assay with E. Coli ATCC BAA-196 it was 0.125 µg/mL (≈ 0.161 µM).
With `CC(C)(O/N=C(\C(=O)N[C@@H]1C(=O)N2C(C(=O)O)=C(C[N+]34CCC(CN5C(=O)c6ccc(O)c(O)c6C5=O)(CC3)CC4)CS[C@H]12)c1csc(N)n1)C(=O)[O-]` [Compound I-5], the MIC in the assay with E. Coli ATCC BAA-200 was 0.25 µg/mL (≈ 0.325 µM); in the assay with P. aeruginosa 378057, at most 0.031 µg/mL; with E. cloacae 1481026, 16 µg/mL (≈ 20.8 µM); in the assay with A. baumannii 1484820 it was 1 µg/mL (≈ 1.3 µM); with E. Coli ATCC BAA-196, 0.25 µg/mL (≈ 0.325 µM).
For `CC(C)(O/N=C(\C(=O)N[C@@H]1C(=O)N2C(C(=O)O)=C(C[N+]3(CCN4C(=O)c5ccc(O)c(O)c5C4=O)CCCCC3)CS[C@H]12)c1csc(N)n1)C(=O)[O-]` [Compound I-7], the MIC was 0.125 µg/mL (≈ 0.165 µM) in the assay on E. Coli ATCC BAA-200; at most 0.031 µg/mL with P. aeruginosa 378057; 0.5 µg/mL (≈ 0.66 µM) in the assay with E. cloacae 1481026; 0.25 µg/mL (≈ 0.33 µM) in the assay on A. baumannii 1484820; 0.063 µg/mL (≈ 0.0831 µM) in the assay with E. Coli ATCC BAA-196.
In the same order, the values of `CC(C)(O/N=C(\C(=O)N[C@@H]1C(=O)N2C(C(=O)O)=C(C[N+]3(Cc4noc5cc(O)c(O)cc45)CCCC3)CS[C@H]12)c1csc(N)n1)C(=O)[O-]` [Compound I-9] are 0.25 µg/mL (≈ 0.356 µM), 0.063 µg/mL (≈ 0.0898 µM), 4 µg/mL (≈ 5.7 µM), 0.5 µg/mL (≈ 0.713 µM) and 0.125 µg/mL (≈ 0.178 µM).
In the same order, the values of `CC(C)(O/N=C(\C(=O)N[C@@H]1C(=O)N2C(c3nnn[nH]3)=C(C[N+]3(CCN4C(=O)c5ccc(O)c(O)c5C4=O)CCCC3)CS[C@H]12)c1csc(N)n1)C(=O)[O-]` [Compound I-11] are 0.125 µg/mL (≈ 0.163 µM), at most 0.031 µg/mL, 0.5 µg/mL (≈ 0.651 µM), 0.063 µg/mL (≈ 0.0821 µM) and 0.063 µg/mL (≈ 0.0821 µM).
In the same order, the values of `CC(C)(O/N=C(\C(=O)N[C@@H]1C(=O)N2C(c3nnn[nH]3)=C(C[N+]3(CCN4C(=O)c5ccc(O)c(O)c5C4=O)CCCC3)CS[C@H]12)c1nc(N)sc1Cl)C(=O)[O-]` [Compound I-14] are 0.063 µg/mL (≈ 0.0785 µM), at most 0.031 µg/mL, 0.5 µg/mL (≈ 0.623 µM), 0.125 µg/mL (≈ 0.156 µM) and at most 0.031 µg/mL.
Turning to `CC(C)(O/N=C(\C(=O)N[C@@H]1C(=O)N2C(c3nnn[n-]3)=C(C[N+]3(CCN4C(=O)c5ccc(O)c(O)c5C4=O)CCCCC3)CS[C@H]12)c1csc(N)n1)C(=O)[O-].[Na+]` [Compound I-15], the MIC in the assay on E. Coli ATCC BAA-200 was 0.125 µg/mL; with P. aeruginosa 378057, 0.063 µg/mL; with E. cloacae 1481026, 0.5 µg/mL; in the assay on A. baumannii 1484820, 0.25 µg/mL; in the assay with E. Coli ATCC BAA-196, 0.125 µg/mL.
For `CC[N+](CC)(CCN1C(=O)c2ccc(O)c(O)c2C1=O)CC1=C(C(=O)[O-])N2C(=O)[C@@H](NC(=O)/C(=N\OC(C)(C)C(=O)[O-])c3csc(N)n3)[C@H]2SC1.[Na+]` [Compound I-17], the MIC in the assay on E. Coli ATCC BAA-200 was 0.063 µg/mL; in the assay with P. aeruginosa 378057, at most 0.031 µg/mL; with E. cloacae 1481026, 0.5 µg/mL; in the assay with A. baumannii 1484820, 0.5 µg/mL; in the assay on E. Coli ATCC BAA-196 it was 0.063 µg/mL.
As for `CC[N+](CC)(CCN1C(=O)c2ccc(O)c(O)c2C1=O)CC1=C(C(=O)[O-])N2C(=O)[C@@H](NC(=O)/C(=N\O[C@@H](CC(=O)[O-])C(=O)[O-])c3csc(N)n3)[C@H]2SC1.[Na+].[Na+]` [Compound I-18], the MIC with E. Coli ATCC BAA-200 was 0.063 µg/mL; with P. aeruginosa 378057, at most 0.031 µg/mL; in the assay on E. cloacae 1481026 it was 0.5 µg/mL; in the assay on A. baumannii 1484820, 0.25 µg/mL; in the assay on E. Coli ATCC BAA-196 it was 0.063 µg/mL.
On to `CC[N+](CC)(CCN1C(=O)c2ccc(O)c(O)c2C1=O)CC1=C(c2nn[nH]n2)N2C(=O)[C@@H](NC(=O)/C(=N\OC(C)(C)C(=O)O)c3csc(N)n3)[C@H]2SC1.[Na+]` [Compound I-19], for which the MIC is 0.063 µg/mL in the assay with E. Coli ATCC BAA-200; at most 0.031 µg/mL in the assay on P. aeruginosa 378057; 0.5 µg/mL with E. cloacae 1481026; 0.25 µg/mL with A. baumannii 1484820; 0.063 µg/mL in the assay on E. Coli ATCC BAA-196.
In the case of `CC(C)(O/N=C(\C(=O)N[C@@H]1C(=O)N2C(C(=O)[O-])=C(C[N+]34CCC(CNC(=O)C(=O)c5cc(O)c(O)c(F)c5)(CC3)CC4)CS[C@H]12)c1csc(N)n1)C(=O)[O-].[Na+]` [Compound I-20], the MIC in the assay on E. Coli ATCC BAA-200 is 0.25 µg/mL; in the assay on P. aeruginosa 378057, at most 0.031 µg/mL; in the assay with E. cloacae 1481026, 2 µg/mL; in the assay with A. baumannii 1484820, 4 µg/mL; in the assay with E. Coli ATCC BAA-196, 0.063 µg/mL.
In the same order, the values of `CC(C)(O/N=C(\C(=O)N[C@@H]1C(=O)N2C(C(=O)[O-])=C(C[N+]34CCC(Cn5ncc6cc(O)c(O)cc6c5=O)(CC3)C4)CS[C@H]12)c1csc(N)n1)C(=O)[O-].[Na+]` [Compound I-22] are 0.125 µg/mL, at most 0.031 µg/mL, 1 µg/mL, 1 µg/mL and at most 0.031 µg/mL.
